# Article PMC6778101 (Nature Communications, 2019)
# “Also recorded” adds a separate entry of the source. Ends that are not written are not given here. Peptide text beside a SMILES is read from it.
# How the values were obtained:
# [1] = tested on: 38 AMP-adapted E. coli K-12 BW25113 lines; experiment: Cross-resistance of AMP-resistant lines (relative MIC); format: cell-based, Escherichia coli; conditions: for Relative MIC (MICevolved / MICcontrol): >1 cross-resistance, <1 collateral sensitivity
# Source text: Next, we have explored whether laboratory evolved AMP resistance provide any cross-resistance to AMPs which appear to be less prone to resistance. […] We have measured the changes in susceptibilities of these strains to the AMPs (PLEU, PGLA, R8, IND, TPII, and CP1) towards which resistance evolution was limited, as well as to the human peptide LL37. LL37 is a cathelicidin-derived AMP present throughout the human body with critical defensive roles. Cross-resistance was defined as a minimum of twofold increase in resistance level.
# (§1) MICs were determined using a standard serial broth dilution technique. Briefly, 11-step serial dilutions were prepared in 96-well microtiter plates with three replicates per strain and antimicrobial compound. Each experiment was repeated at least twice. 5 × 10^5 cells/mL were inoculated into each well, and the plates were incubated at 30 °C in case of E. coli K-12 BW25113, and its antibiotic and AMP-adapted lines, or 37 °C in case of the other bacterial species. Plates were shaken at 300 r.p.m. during incubation for 24 and 18 h, respectively. Cell growth was monitored by measuring the optical density (OD600 value, Biotek Synergy 2 microplate reader was used for this purpose). […] Relative MIC was calculated as follows: MICrelative = MICevolved/MICcontrol.
# [2] = tested on: E. coli ATCC 25922; format: cell-based, Escherichia coli; conditions: Escherichia coli ATCC 25922; broth dilution, 37 °C, 18 h
# Experimental: (§2) Unless otherwise indicated, we used E. coli K-12 BW25113 in all high-throughput experiments. To investigate the impact of mutation rate on evolution of AMP resistance, we initiated laboratory evolution with a mutator strain E. coli mutD5 that carries mutations in the dnaQ gene (L73W and A164V).
# as §1
# [3] = tested on: Klebsiella pneumoniae subsp. pneumoniae ATCC 700603; format: cell-based; conditions: broth dilution, 37 °C, 18 h
# Experimental: as §2, §1
# [4] = tested on: Pseudomonas aeruginosa ATCC 27853; format: cell-based; conditions: broth dilution, 37 °C, 18 h
# Experimental: as §2, §1
# [5] = tested on: Enterobacter cloacae subsp. cloacae ATCC 13047; format: cell-based; conditions: broth dilution, 37 °C, 18 h
# Experimental: as §2, §1
# [6] = tested on: Streptococcus pyogenes ATCC 19653; format: cell-based; conditions: broth dilution, 37 °C, 18 h
# Experimental: as §2, §1
# [7] = tested on: Escherichia coli ATCC BAA 2340; format: cell-based; conditions: broth dilution, 37 °C, 18 h
# Experimental: as §2, §1
# [8] = tested on: Staphylococcus aureus subsp. aureus ATCC 25923; format: cell-based; conditions: broth dilution, 37 °C, 18 h
# Experimental: as §2, §1
# [9] = tested on: Shigella flexneri HNCMB 20018; format: cell-based; conditions: broth dilution, 37 °C, 18 h
# Experimental: as §2, §1
# [10] = tested on: Enterococcus faecium ATCC 700221; format: cell-based; conditions: broth dilution, 37 °C, 18 h
# Experimental: as §2, §1
# [11] = tested on: Salmonella enteritidis HNCMB 10092; format: cell-based; conditions: broth dilution, 37 °C, 18 h
# Experimental: as §2, §1
# [12] = tested on: Human red blood cells; conditions: previous work; cited from earlier work
# Source text: Finally, our work identifies that TPII and CP1 are promising candidates for future therapeutic considerations, for the following reasons. They are active against a wide range of bacterial pathogens with a relatively high activity/toxicity (ATI) index. We note however, that existing data on the toxicity of the tachyplesin antimicrobial family are controversial[48],[59]–[61]. […] Furthermore, evolution of resistance against these AMPs is improbable in E. coli. We propos ...
compound,measurement,setting,value
"CC[C@H](C)[C@@H]1NC(=O)CNC(=O)[C@H](CCCNC(=N)N)NC(=O)[C@H](Cc2ccc(O)cc2)NC(=O)[C@@H]2CSSC[C@H](NC1=O)C(=O)N[C@@H](Cc1ccc(O)cc1)C(=O)N[C@@H](CCCNC(=N)N)C(=O)N[C@@H](CCCCN)C(=O)N[C@H](C(=O)N[C@@H](CCCNC(=N)N)C(N)=O)CSSC[C@H](NC(=O)[C@H](Cc1c[nH]c3ccccc13)NC(=O)[C@@H](N)CCCNC(=N)N)C(=O)N[C@@H](Cc1ccccc1)C(=O)N[C@@H](CCCNC(=N)N)C(=O)N[C@@H](C(C)C)C(=O)N2 [TPII, tachyplesin II] (HELM PEPTIDE1{R.W.C.F.R.V.C.Y.R.G.I.C.Y.R.K.C.R.[am]}$PEPTIDE1,PEPTIDE1,3:R3-16:R3|PEPTIDE1,PEPTIDE1,7:R3-12:R3$$$V2.0; N-terminus and C-terminus assumed; bridges inferred)",Fold change in minimum inhibitory concentration (MIC),[1]; AMP-adapted line BAC5_3,1
same,Relative MIC (MICevolved / MICcontrol),[1]; AMP-adapted line BAC5_3,1
same,Fold change in minimum inhibitory concentration (MIC),[1]; AMP-adapted line BAC5_5,1
same,Relative MIC (MICevolved / MICcontrol),[1]; AMP-adapted line BAC5_5,1
same,Fold change in minimum inhibitory concentration (MIC),[1]; AMP-adapted line BAC5_7,1.1
same,Relative MIC (MICevolved / MICcontrol),[1]; AMP-adapted line BAC5_7,1.1
same,Fold change in minimum inhibitory concentration (MIC),[1]; AMP-adapted line BAC5_10,1.1
same,Relative MIC (MICevolved / MICcontrol),[1]; AMP-adapted line BAC5_10,1.1
same,Fold change in minimum inhibitory concentration (MIC),[1]; AMP-adapted line CAP18_2,1.1
same,Relative MIC (MICevolved / MICcontrol),[1]; AMP-adapted line CAP18_2,1.1
same,Fold change in minimum inhibitory concentration (MIC),[1]; AMP-adapted line CAP18_5,1
same,Relative MIC (MICevolved / MICcontrol),[1]; AMP-adapted line CAP18_5,1
same,Fold change in minimum inhibitory concentration (MIC),[1]; AMP-adapted line CAP18_6,1
same,Relative MIC (MICevolved / MICcontrol),[1]; AMP-adapted line CAP18_6,1
same,Fold change in minimum inhibitory concentration (MIC),[1]; AMP-adapted line CAP18_8,1.1
same,Relative MIC (MICevolved / MICcontrol),[1]; AMP-adapted line CAP18_8,1.1
same,Fold change in minimum inhibitory concentration (MIC),[1]; AMP-adapted line CAP18_10,1
same,Relative MIC (MICevolved / MICcontrol),[1]; AMP-adapted line CAP18_10,1
same,Fold change in minimum inhibitory concentration (MIC),[1]; AMP-adapted line HBD3_3,1.2
same,Relative MIC (MICevolved / MICcontrol),[1]; AMP-adapted line HBD3_3,1.2
same,Fold change in minimum inhibitory concentration (MIC),[1]; AMP-adapted line HBD3_6,1.2
same,Relative MIC (MICevolved / MICcontrol),[1]; AMP-adapted line HBD3_6,1.2
same,Fold change in minimum inhibitory concentration (MIC),[1]; AMP-adapted line HBD3_8,1.2
same,Relative MIC (MICevolved / MICcontrol),[1]; AMP-adapted line HBD3_8,1.2
same,Fold change in minimum inhibitory concentration (MIC),[1]; AMP-adapted line HBD3_10,1.2
same,Relative MIC (MICevolved / MICcontrol),[1]; AMP-adapted line HBD3_10,1.2
same,Fold change in minimum inhibitory concentration (MIC),[1]; AMP-adapted line LL37_1,1.1
same,Relative MIC (MICevolved / MICcontrol),[1]; AMP-adapted line LL37_1,1.1
same,Fold change in minimum inhibitory concentration (MIC),[1]; AMP-adapted line LL37_3,1.1
same,Relative MIC (MICevolved / MICcontrol),[1]; AMP-adapted line LL37_3,1.1
same,Fold change in minimum inhibitory concentration (MIC),[1]; AMP-adapted line LL37_6,1
same,Relative MIC (MICevolved / MICcontrol),[1]; AMP-adapted line LL37_6,1
same,Fold change in minimum inhibitory concentration (MIC),[1]; AMP-adapted line LL37_7,1
same,Relative MIC (MICevolved / MICcontrol),[1]; AMP-adapted line LL37_7,1
same,Fold change in minimum inhibitory concentration (MIC),[1]; AMP-adapted line LL37_10,1
same,Relative MIC (MICevolved / MICcontrol),[1]; AMP-adapted line LL37_10,1
same,Fold change in minimum inhibitory concentration (MIC),[1]; AMP-adapted line PEX_1,1.1
same,Relative MIC (MICevolved / MICcontrol),[1]; AMP-adapted line PEX_1,1.1
same,Fold change in minimum inhibitory concentration (MIC),[1]; AMP-adapted line PEX_4,1.2
same,Relative MIC (MICevolved / MICcontrol),[1]; AMP-adapted line PEX_4,1.2
same,Fold change in minimum inhibitory concentration (MIC),[1]; AMP-adapted line PEX_5,1.1
same,Relative MIC (MICevolved / MICcontrol),[1]; AMP-adapted line PEX_5,1.1
same,Fold change in minimum inhibitory concentration (MIC),[1]; AMP-adapted line PEX_6,1
same,Relative MIC (MICevolved / MICcontrol),[1]; AMP-adapted line PEX_6,1
same,Fold change in minimum inhibitory concentration (MIC),[1]; AMP-adapted line PEX_7,1
same,Relative MIC (MICevolved / MICcontrol),[1]; AMP-adapted line PEX_7,1
same,Fold change in minimum inhibitory concentration (MIC),[1]; AMP-adapted line PR39_1,1
same,Relative MIC (MICevolved / MICcontrol),[1]; AMP-adapted line PR39_1,1
same,Fold change in minimum inhibitory concentration (MIC),[1]; AMP-adapted line PR39_2,0.9
same,Relative MIC (MICevolved / MICcontrol),[1]; AMP-adapted line PR39_2,0.9
same,Fold change in minimum inhibitory concentration (MIC),[1]; AMP-adapted line PR39_5,0.9
same,Relative MIC (MICevolved / MICcontrol),[1]; AMP-adapted line PR39_5,0.9
same,Fold change in minimum inhibitory concentration (MIC),[1]; AMP-adapted line PR39_7,0.9
same,Relative MIC (MICevolved / MICcontrol),[1]; AMP-adapted line PR39_7,0.9
same,Fold change in minimum inhibitory concentration (MIC),[1]; AMP-adapted line PR39_10,0.9
same,Relative MIC (MICevolved / MICcontrol),[1]; AMP-adapted line PR39_10,0.9
same,Fold change in minimum inhibitory concentration (MIC),[1]; AMP-adapted line PROA_2,1.1
same,Relative MIC (MICevolved / MICcontrol),[1]; AMP-adapted line PROA_2,1.1
same,Fold change in minimum inhibitory concentration (MIC),[1]; AMP-adapted line PROA_3,0.8
same,Relative MIC (MICevolved / MICcontrol),[1]; AMP-adapted line PROA_3,0.8
same,Fold change in minimum inhibitory concentration (MIC),[1]; AMP-adapted line PROA_7,1
same,Relative MIC (MICevolved / MICcontrol),[1]; AMP-adapted line PROA_7,1
same,Fold change in minimum inhibitory concentration (MIC),[1]; AMP-adapted line PROA_8,1
same,Relative MIC (MICevolved / MICcontrol),[1]; AMP-adapted line PROA_8,1
same,Fold change in minimum inhibitory concentration (MIC),[1]; AMP-adapted line PROA_9,1.1
same,Relative MIC (MICevolved / MICcontrol),[1]; AMP-adapted line PROA_9,1.1
same,Fold change in minimum inhibitory concentration (MIC),[1]; AMP-adapted line PXB_2,1.1
same,Relative MIC (MICevolved / MICcontrol),[1]; AMP-adapted line PXB_2,1.1
same,Fold change in minimum inhibitory concentration (MIC),[1]; AMP-adapted line PXB_5,1
same,Relative MIC (MICevolved / MICcontrol),[1]; AMP-adapted line PXB_5,1
same,Fold change in minimum inhibitory concentration (MIC),[1]; AMP-adapted line PXB_6,1.1
same,Relative MIC (MICevolved / MICcontrol),[1]; AMP-adapted line PXB_6,1.1
same,Fold change in minimum inhibitory concentration (MIC),[1]; AMP-adapted line PXB_8,1
same,Relative MIC (MICevolved / MICcontrol),[1]; AMP-adapted line PXB_8,1
same,Fold change in minimum inhibitory concentration (MIC),[1]; AMP-adapted line PXB_10,1.1
same,Relative MIC (MICevolved / MICcontrol),[1]; AMP-adapted line PXB_10,1.1
same,cross-resistance of the 38 AMP-resistant lines to the AMP (in words),[1]; cross-resistance = minimum of twofold increase in resistance level,none of the 38 AMP-resistant lines displayed cross-resistance; also recorded: no cross-resistance
"SWLSKTAKKLENSAKKRISEGIAIAIQGGPR [CP1, Cecropin P1]",MIC,[2],1.2 µM
same,MIC,[3],2.4 µM
same,MIC,[4],2.4 µM
same,MIC,[5],> 9.6 µM
same,MIC,[6],> 9.6 µM
same,MIC,[7],1.2 µM
same,MIC,[8],> 9.6 µM
same,MIC,[9],1.2 µM
same,MIC,[10],> 9.6 µM
same,MIC,[11],1.2 µM
same,toxicity or haemolytic activity (in words),[12],negligible toxicity or haemolytic activity
